Assay results published in patent US20250115597A1, “TYK2 INHIBITORS AND COMPOSITIONS AND METHODS THEREOF” (LYNK PHARMACEUTICALS CO. LTD., priority 2021, published 2025).
Where two headings read alike, the source gives them in different places.

How the values were obtained:
[1] = molecular target: T1, Ba/F3-FL-TYK2-P760L cells (Homo sapiens, UniProt P29597, P760L, cells depend on it); test: Anti-proliferative assay, Ba/F3-FL-TYK2-P760L cells (Cell-Titer Glo); assay type: cell-based; details: 72 h, read-out: BaF3-FL-T2P760L IC50
T1 construct: BaF3-FL-T2P760L (nM)
T1 sequence (P29597 whole entry P760L): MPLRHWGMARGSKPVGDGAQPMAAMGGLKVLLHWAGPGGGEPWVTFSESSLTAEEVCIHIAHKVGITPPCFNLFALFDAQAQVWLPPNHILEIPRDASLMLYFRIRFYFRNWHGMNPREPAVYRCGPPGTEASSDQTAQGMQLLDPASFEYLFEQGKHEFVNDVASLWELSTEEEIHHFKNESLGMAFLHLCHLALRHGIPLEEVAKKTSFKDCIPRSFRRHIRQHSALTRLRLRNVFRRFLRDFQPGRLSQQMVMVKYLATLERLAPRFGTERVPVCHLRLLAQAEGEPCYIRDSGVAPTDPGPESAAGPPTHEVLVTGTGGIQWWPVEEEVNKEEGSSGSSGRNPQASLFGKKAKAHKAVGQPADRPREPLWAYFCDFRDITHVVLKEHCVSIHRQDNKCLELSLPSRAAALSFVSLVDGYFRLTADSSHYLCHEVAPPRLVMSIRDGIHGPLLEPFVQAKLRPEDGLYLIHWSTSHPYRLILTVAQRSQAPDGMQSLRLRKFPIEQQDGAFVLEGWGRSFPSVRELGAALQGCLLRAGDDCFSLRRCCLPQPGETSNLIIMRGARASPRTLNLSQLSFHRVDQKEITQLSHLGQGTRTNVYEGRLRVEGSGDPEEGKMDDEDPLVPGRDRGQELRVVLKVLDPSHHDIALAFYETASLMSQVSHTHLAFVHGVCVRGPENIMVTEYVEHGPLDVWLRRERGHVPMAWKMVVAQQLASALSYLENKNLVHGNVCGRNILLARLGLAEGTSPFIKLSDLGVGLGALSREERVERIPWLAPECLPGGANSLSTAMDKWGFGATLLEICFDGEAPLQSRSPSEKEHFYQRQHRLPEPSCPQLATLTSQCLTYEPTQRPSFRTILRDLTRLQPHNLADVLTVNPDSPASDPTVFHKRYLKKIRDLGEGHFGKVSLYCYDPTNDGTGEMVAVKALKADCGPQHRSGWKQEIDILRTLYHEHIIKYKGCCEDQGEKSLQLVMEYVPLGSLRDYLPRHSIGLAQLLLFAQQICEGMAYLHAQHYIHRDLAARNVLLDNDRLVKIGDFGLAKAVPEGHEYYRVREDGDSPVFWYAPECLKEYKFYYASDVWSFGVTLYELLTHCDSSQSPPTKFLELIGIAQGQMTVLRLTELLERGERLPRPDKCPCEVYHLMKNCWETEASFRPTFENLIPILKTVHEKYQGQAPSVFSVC
How it was run: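 Compound exposure ran 72 h at 37 °C in 5% CO2 across nine 3-fold concentrations from a 20 μM top dose, added 24 h after seeding 2000 cells/well.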

[2] = Microsomal metabolic stability assay; assay type: in vitro ADME; details: pH 7.4, 0.5 mg/mL protein, 1 μM compound
How it was run: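 Parent loss was tracked by LC/MS/MS at 0, 5, 15, 30 and 45 min, with half-life derived from the ln(% remaining)–time slope. Incubation at 37 °C, pH 7.4 phosphate/EDTA buffer: 0.5 mg/mL microsomes, 1 μM compound, NADPH-regenerated (2 mM).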

TYK2-JH2 domain = molecular target: T2, TYK2-JH2 domain (Homo sapiens, UniProt P29597); test: Binding activity test for JH2 domain of TYK2 (Tb-antibody/tracer FRET); details: for JAK1/TYK2 selectivity: ratio JAK1-JH2 IC50 / TYK2-JH2 IC50
T2 construct: IC50 on JH2 domain activity (nM)
T2 sequence (P29597 589-875 limits assumed): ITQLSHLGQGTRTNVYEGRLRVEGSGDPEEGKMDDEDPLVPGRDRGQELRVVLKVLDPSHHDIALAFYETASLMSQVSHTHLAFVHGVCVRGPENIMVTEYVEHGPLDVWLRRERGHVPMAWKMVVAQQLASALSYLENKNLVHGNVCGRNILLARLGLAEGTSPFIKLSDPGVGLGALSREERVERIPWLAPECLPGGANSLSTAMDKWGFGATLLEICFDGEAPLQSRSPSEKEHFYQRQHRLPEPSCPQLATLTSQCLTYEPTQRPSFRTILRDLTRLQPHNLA
How it was run: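 FRET read-out after 60 min at 25° C plus overnight at 4° C; tracer displacement detected via Tb-labelled antibody on the JH2 domain. Dose-response used 11 points at 3-fold dilution.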

JAK1-JH2 domain = molecular target: T3, JAK1-JH2 domain (Homo sapiens, UniProt P23458); test: Binding activity test for JH2 domain of JAK1 (Tb-antibody/tracer FRET)
T3 construct: IC50 on JH2 domain activity (nM)
T3 sequence (P23458 583-855 limits assumed): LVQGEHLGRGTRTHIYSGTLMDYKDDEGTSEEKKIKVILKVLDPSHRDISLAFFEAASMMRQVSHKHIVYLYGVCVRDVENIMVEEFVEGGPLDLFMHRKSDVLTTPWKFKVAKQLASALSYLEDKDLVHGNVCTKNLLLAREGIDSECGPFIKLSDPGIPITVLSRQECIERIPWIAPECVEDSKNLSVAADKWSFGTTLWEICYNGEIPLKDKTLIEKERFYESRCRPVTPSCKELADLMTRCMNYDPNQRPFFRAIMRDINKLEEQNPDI
Procedure: Binding Activity Test for […] Domain of JAK1 and TYK2 The compounds are prepared in DMSO for 200× top dose, then serial dilute it with 27-fold for 3 more points. Add 8 μL/well in echo source plate, echo will add 75 nL/well with 3-fold serial dilution for 11 points in assay plate. 75 nL DMSO for high control and low control. […] For low control, add 5 μL/well assay buffer. And then spin down at 1000 rpm and centrifuge for 30 seconds. After enzyme system prepared, add 5 μL of Tb-antibody solution into each wells of assay plate. Spin down at 1000 rpm and centrifuge for 30 sec. After Tb-antibody added, also add 5 μL of tracer into the assay plate. Spin down at 1000 rpm and centrifuge for 30 sec. Incubate for 60 mins at 25° C. firstly and then continue to incubate the plate at 4° C. overnight. Read by envision in FRET mode. The Luminescence value was recorded by a multi-label reader Envision (PerkinElmer).

[3] = dog liver microsomes, read-out: Dog LM Clint
[4] = dog liver microsomes, read-out: Dog LM T½
[5] = human liver microsomes, read-out: Human LM Clint
[6] = human liver microsomes, read-out: Human LM T½
[7] = rat liver microsomes, read-out: Rat LM Clint
[8] = rat liver microsomes, read-out: Rat LM T½

SMILES	GI50 [1]	microsomal CLint at 1 μM [2, 3]	half-life at 1 μM [2, 4]	microsomal CLint at 1 μM [2, 5]	half-life at 1 μM [2, 6]	microsomal CLint at 1 μM [2, 7]	half-life at 1 μM [2, 8]	IC50 (TYK2-JH2 domain)	JAK1/TYK2 selectivity (TYK2-JH2 domain)	IC50 (JAK1-JH2 domain)
[2H]C([2H])([2H])NC(=O)c1cnc(Nc2ccc(F)cn2)cc1Nc1ncc2cnn(CC)c2c1OC [Example 263, 4-((1-Ethyl-7-methoxy-1H-pyrazolo[4,3-c]pyridin-6-yl)amino)-6-((5-fluoropyridin-2-yl)amino)-N-(methyl-d3)nicotinamide]	41.7 nM	97.2 µL/min/mg	0.238 h	29.2 µL/min/mg	0.791 h	40.9 µL/min/mg	0.566 h	0.29 nM	87.4	25.4 nM
[2H]C([2H])([2H])NC(=O)c1cnc(Nc2ccc(F)cn2)cc1Nc1ccn2ncc(C#N)c2c1OC [Example 257, 4-((3-Cyano-4-methoxypyrazolo[1,5-a]pyridin-5-yl)amino)-6-((5-fluoropyridin-2-yl)amino)-N-(methyl-d3)nicotinamide]	39.7 nM	9.01 µL/min/mg	2.56 h	9.51 µL/min/mg	2.43 h	20.2 µL/min/mg	1.14 h	0.135 nM	23.5	3.18 nM
[2H]C([2H])([2H])NC(=O)c1cnc(NC(=O)C2CC2)cc1Nc1ncc2ncn(CC)c2c1OC [Example 260, 6-(Cyclopropanecarboxamido)-4-((1-ethyl-7-methoxy-1H-imidazo[4,5-c]pyridin-6-yl)amino)-N-(methyl-d3)nicotinamide]	143 nM	–	–	–	–	–	–	0.124 nM	78.9	9.78 nM
[2H]C([2H])([2H])NC(=O)c1cnc(Nc2ccn(C)n2)cc1Nc1ccn2ncc(C)c2c1OC [Example 255, 4-((4-Methoxy-3-methylpyrazolo[1,5-a]pyridin-5-yl)amino)-N-(methyl-d3)-6-((1-methyl-1H-pyrazol-3-yl)amino)nicotinamide]	116 nM	–	–	–	–	–	–	0.323 nM	13.7	4.42 nM
[2H]C([2H])([2H])NC(=O)c1cnc(NC(=O)C2CC2)cc1Nc1ccc2cnn(CC(N)=O)c2c1OC [Example 259, 4-((1-(2-Amino-2-oxoethyl)-7-methoxy-1H-indazol-6-yl)amino)-6-(cyclopropanecarboxamido)-N-(methyl-d3)nicotinamide]	> 5000 nM	9.24 µL/min/mg	2.5 h	4.39 µL/min/mg	5.26 h	4.7 µL/min/mg	4.92 h	6.29 nM	12.7	79.9 nM
[2H]C([2H])([2H])NC(=O)c1cnc(NC(=O)C2CC2)cc1Nc1ccc2cnn(C(C)C#N)c2c1OC (single isomer, unassigned) [Example 249A, (R*)-4-((1-(1-cyanoethyl)-7-methoxy-1H-indazol-6-yl)amino)-6-(cyclopropanecarboxamido)-N-(methyl-d3)nicotinamide]	495 nM	–	–	–	–	–	–	0.715 nM	25.15	18 nM
[2H]C([2H])([2H])NC(=O)c1cnc(Nc2ccc(F)cn2)cc1Nc1ncc2cnn(C([2H])([2H])[2H])c2c1OC [Example 277, 6-((5-Fluoropyridin-2-yl)amino)-4-((7-methoxy-1-(methyl-d3)-1H-pyrazolo[4,3-c]pyridin-6-yl)amino)-N-(methyl-d3)nicotinamide]	60.2 nM	–	–	–	–	–	–	1.11 nM	55.5	61.4 nM

More lines, now with the values ahead:

GI50 [1]	microsomal CLint at 1 μM [2, 3]	half-life at 1 μM [2, 4]	microsomal CLint at 1 μM [2, 5]	half-life at 1 μM [2, 6]	microsomal CLint at 1 μM [2, 7]	half-life at 1 μM [2, 8]	IC50 (TYK2-JH2 domain)	JAK1/TYK2 selectivity (TYK2-JH2 domain)	IC50 (JAK1-JH2 domain)	SMILES
278 nM	16.9 µL/min/mg	1.37 h	12.1 µL/min/mg	1.91 h	15.4 µL/min/mg	1.5 h	1.77 nM	41.4	73.7 nM	[2H]C([2H])([2H])NC(=O)c1cnc(Nc2ccn(C)n2)cc1Nc1ncc2cnn(CC)c2c1OC [Example 264, 4-((1-Ethyl-7-methoxy-1H-pyrazolo[4,3-c]pyridin-6-yl)amino)-N-(methyl-d3)-6-((1-methyl-1H-pyrazol-3-yl)amino)nicotinamide]
71.3 nM	51.9 µL/min/mg	0.445 h	50.4 µL/min/mg	0.458 h	90.5 µL/min/mg	0.255 h	0.455 nM	33.2	15.1 nM	[2H]C([2H])([2H])NC(=O)c1cnc(Nc2ccncn2)cc1Nc1ccc2cnn(C([2H])([2H])[2H])c2c1OC [Example 153, 4-((7-Methoxy-1-(methyl-d3)-1H-indazol-6-yl)amino)-N-(methyl-d3)-6-(pyrimidin-4-ylamino)nicotinamide]
88.2 nM	–	–	–	–	–	–	0.253 nM	436.1	110 nM	[2H]C([2H])([2H])NC(=O)c1cnc(NC(=O)C2CC2)cc1Nc1ncc2cnn(CC(C)(F)F)c2c1OC [Example 276, 6-(Cyclopropanecarboxamido)-4-((1-(2,2-difluoropropyl)-7-methoxy-1H-pyrazolo[4,3-c]pyridin-6-yl)amino)-N-(methyl-d3)nicotinamide]
52.6 nM	–	–	–	–	–	–	0.158 nM	70.8	11.2 nM	[2H]C([2H])([2H])NC(=O)c1cnc(NC(=O)C2CC2)cc1Nc1cn(CC(F)(F)F)c2ccn(CC)c(=O)c12 [Example 209, 6-(Cyclopropanecarboxamido)-4-((5-ethyl-4-oxo-1-(2,2,2-trifluoroethyl)-4,5-dihydro-1H-pyrrolo[3,2-c]pyridin-3-yl)amino)-N-(methyl-d3)nicotinamide]
541 nM	–	–	–	–	–	–	1.03 nM	94.03	97.2 nM	[2H]C([2H])([2H])NC(=O)c1cnc(NC(=O)C2CC2)cc1Nc1ccn2ncc(C(C)C#N)c2c1OC (single isomer, unassigned) [Example 251A, (R*)-4-((3-(1-cyanoethyl)-4-methoxypyrazolo[1,5-a]pyridin-5-yl)amino)-6-(cyclopropanecarboxamido)-N-(methyl-d3)nicotinamide]
117 nM	–	–	–	–	–	–	0.304 nM	18.32	5.57 nM	[2H]C([2H])([2H])NC(=O)c1cnc(NC(=O)C2CC2)cc1Nc1ccn2ncc(C(C)C#N)c2c1OC (centres unmarked) [Example 251, 4-((3-(1-Cyanoethyl)-4-methoxypyrazolo[1,5-a]pyridin-5-yl)amino)-6-(cyclopropanecarboxamido)-N-(methyl-d3)nicotinamide]
232 nM	–	–	–	–	–	–	0.783 nM	24.33	19 nM	[2H]C([2H])([2H])NC(=O)c1cnc(NC(=O)C2CC2)cc1Nc1ccn2ncc(F)c2c1OC [Example 253, 6-(Cyclopropanecarboxamido)-4-((3-fluoro-4-methoxypyrazolo[1,5-a]pyridin-5-yl)amino)-N-(methyl-d3)nicotinamide]
